“Also recorded” adds a separate entry of the source. Like-named read-outs stand apart in the source and are kept apart here.
What was measured:
[1] = Crystal stability on storage at 25° C. and 0%, 52% or 93% RH for 3 days; type: physicochemical; parameters: key to Crystal form (change): No: No change; Yes: Some change
Protocol: Compounds (1a), (1b), and (1c) as well as various salts of Compound (1a) produced in the Examples as described above were stored at 25° C. and at a relative humidity of 0%, 52%, or 93% for 3 days to evaluate change in weight and crystal form. Change in crystal form was measured in the case of fumarate at a low humidity, and in the case of Compound (1a) and its citrate at a high humidity. The salts of Compound (1a) were produced according to the method of Example 3.

[2] = test system: human platelet rich plasma (PRP), aggregation induced by collagen; test: Suppression of collagen-induced platelet aggregation in human PRP; type: cell-based
Protocol: (§1) After removing the PRP in the upper layer, the lower layer was further centrifuged at 1600 g for 10 minutes to separate the platelet poor plasma (PPP). 1 μL of the solution of Compound (I) or Comparative Examples 1 to 3 was added to 200 μL of PRP, and the mixture was allowed to stand at 37° C. for 2 minutes. Platelet aggregation was then induced by adding 2 μL of collagen to the mixture. Platelet aggregation rate was measured by using PAM-12C (SSR Engineering).

COX-1 = target: T1, COX-1 (Ovis aries, UniProt P05979); test: Inhibition of cyclooxygenase-1 (COX inhibitor screening assay kit, PGF2α ELISA); type: biochemical; conditions: for IC50 for COX-1 relative to IC50 of platelet aggregation suppression: ratio COX-1 IC50 / platelet aggregation IC50
T1 sequence (P05979 25-600): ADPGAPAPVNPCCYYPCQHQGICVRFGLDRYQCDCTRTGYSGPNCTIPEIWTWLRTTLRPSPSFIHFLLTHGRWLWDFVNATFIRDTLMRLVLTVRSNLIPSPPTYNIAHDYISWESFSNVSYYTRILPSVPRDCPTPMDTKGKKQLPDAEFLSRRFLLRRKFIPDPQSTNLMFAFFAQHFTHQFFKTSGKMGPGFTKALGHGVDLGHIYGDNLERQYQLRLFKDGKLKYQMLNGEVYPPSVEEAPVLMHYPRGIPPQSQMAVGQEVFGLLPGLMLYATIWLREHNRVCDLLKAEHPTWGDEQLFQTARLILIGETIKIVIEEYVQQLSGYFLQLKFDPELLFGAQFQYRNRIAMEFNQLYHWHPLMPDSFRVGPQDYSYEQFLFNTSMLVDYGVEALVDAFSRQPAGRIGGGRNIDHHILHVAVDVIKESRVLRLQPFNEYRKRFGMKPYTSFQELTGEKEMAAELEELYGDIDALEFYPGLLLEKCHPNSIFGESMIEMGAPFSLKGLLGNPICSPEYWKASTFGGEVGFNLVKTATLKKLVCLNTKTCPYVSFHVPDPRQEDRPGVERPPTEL
Protocol: (§2) Screening assay kit for COX inhibitor (Cayman Chemical Company, Catalog Nos. 560101 and 560121) were used to measure inhibitory activity of each compound for COX-1 and COX-2.
(§3) Reaction buffer, heme, arachidonic acid, SnCl2, EIA buffer, wash buffer, prostaglandin (PG) screening EIA standard, PG screening acetylcholinesterase (AchE) tracer ([…]), and PG screening EIA antiserum were prepared before the measurement.
(§4) The reaction solution containing various concentration of the compound of the Examples and COX-1 or COX-2 was allowed to stand at 37° C. for 10 minutes. 10 μL of arachidonic acid was added, and the reaction solution was allowed to stand at 37° C. for 2 minutes. After the reaction, 50 μL of 1N hydrochloric acid was added to cease the reaction, and 100 μL of SnCl2 solution was added, and the reaction solution was allowed to stand at room temperature for 5 minutes.
(§5) 50 μL of an antiserum (rabbit anti-PGF2α antibody) was added to each well of a 96 well plate which had been coated with mouse anti-rabbit IgG, and to each well was added 50 μL of a 2000-fold dilution of the PGF2α producing reaction solution, and then, 50 μL of the AchE tracer. The reaction mixture was allowed to stand at room temperature for 18 hours. The wells were washed 5 times with the wash buffer to remove the excessive AchE tracer, and 200 μL of Ellman reagent was added. After allowing to stand in a dark room for 60 minutes, the absorbance was measured at 405 nm.
(§6) Standard curve was depicted by using PG screening EIA standard, and amount of the PGF2α produced was determined from the absorbance.

COX-2 = target: T2, COX-2 (Homo sapiens, UniProt P35354); test: Inhibition of cyclooxygenase-2 (COX inhibitor screening assay kit, PGF2α ELISA); type: biochemical; conditions: for IC50 for COX-2 relative to IC50 of platelet aggregation suppression: ratio COX-2 IC50 / platelet aggregation IC50
T2 sequence (P35354 18-604): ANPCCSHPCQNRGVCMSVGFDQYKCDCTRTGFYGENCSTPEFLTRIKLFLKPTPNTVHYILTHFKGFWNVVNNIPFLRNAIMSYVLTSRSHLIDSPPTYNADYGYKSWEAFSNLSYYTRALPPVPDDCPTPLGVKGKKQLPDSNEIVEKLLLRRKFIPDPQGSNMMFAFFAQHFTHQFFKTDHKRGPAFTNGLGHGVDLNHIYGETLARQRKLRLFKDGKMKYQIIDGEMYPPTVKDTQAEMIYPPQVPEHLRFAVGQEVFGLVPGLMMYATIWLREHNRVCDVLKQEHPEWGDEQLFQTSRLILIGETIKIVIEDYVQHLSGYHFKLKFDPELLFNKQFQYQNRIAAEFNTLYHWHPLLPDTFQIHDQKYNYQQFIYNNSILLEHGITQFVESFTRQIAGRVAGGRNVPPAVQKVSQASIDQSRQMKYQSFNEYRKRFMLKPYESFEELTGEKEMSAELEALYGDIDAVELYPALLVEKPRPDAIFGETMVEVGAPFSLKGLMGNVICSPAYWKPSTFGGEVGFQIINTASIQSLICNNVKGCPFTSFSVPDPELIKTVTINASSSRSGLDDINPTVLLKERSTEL
Protocol: as §2, §3, §4, §5, §6

[3] = Solubility in water, JP1 solution and JP2 solution; type: physicochemical
thrombogenesis [4] = test: Thrombus model induced by iron chloride; type: in vivo
thrombogenesis [5] = test: Model of thrombosis induced by high shear stress; type: in vivo
[6] = test system: platelet aggregation induced by collagen; test: Inhibition of platelet aggregation induced by collagen (general statement); type: cell-based; conditions: species not given
[7] = Safety (general statement)
[8] = test system: platelet aggregation induced by collagen in PRP of guinea pig; test: Evaluation of oral absorption: ex vivo collagen-induced platelet aggregation in PRP of orally dosed guinea pig; conditions: for ex vivo inhibition of the platelet aggregation by the collagen: general statement, no dose given
[9] = test system: guinea pig platelet rich plasma (PRP), aggregation induced by collagen; test: Suppression of collagen-induced platelet aggregation in guinea pig PRP; type: cell-based; conditions: Cavia porcellus
Protocol: as §1

[10] = Stability under wet heat, dry heat and beam irradiation; type: physicochemical

Compound	Crystal form (change) ([1]; 0% RH)	Weight change (%) ([1]; 0% RH)	Crystal form (change) ([1]; 52% RH)	Weight change (%) ([1]; 52% RH)	Crystal form (change) ([1]; 93% RH)	Weight change (%) ([1]; 93% RH)	IC50 (COX-1) [µM]	IC50 for COX-1 relative to IC50 of platelet aggregation suppression (COX-1) [fold]	IC50 (COX-2) [µM]	IC50 for COX-2 relative to IC50 of platelet aggregation suppression (COX-2) [fold]	solubility in water, JP1 solution and JP2 solution [3]	inhibition of the platelet aggregation induced by collagen [6]	ex vivo inhibition of the platelet aggregation by the collagen [8]	other results
Citrate	No	0.00	No	0.00	Yes	2.45	–	–	–	–	–	–	–	–
Fumarate	Yes^2)	−5.65	No	1.60	No	0.59	–	–	–	–	–	–	–	–
Maleate	No	0.00	No	0.40	No	0.39	–	–	–	–	–	–	–	–
COc1ccc(-n2nc(C(=O)N3CCN(C)CC3)cc2-c2ccccn2)nn1.Cl [Compound (1b), [1-(6-Methoxypyridazine-3-yl)-5-(pyridine-2-yl)-1H-pyrazole-3-yl] (4-methylpiperazine-1-yl)methanone Monohydrochloride]	No	0.20	No	0.58	Yes	11.54	> 100	100	> 100	100	good solubility	remarkable inhibition	strong ex vivo inhibition	IC50 ([2]; Homo sapiens, Platelet): 0.86 µM; suppression of thrombogenesis (thrombogenesis [4]): remarkable suppression; inhibition of the thrombogenesis (thrombogenesis [5]): remarkable inhibition; safety [7]: no safety problems; platelet aggregation induced by collagen, ex vivo ([8]; guinea pig, 10 mg/kg oral, 1 hour after administration, collagen 0.8 μg to 2.5 μg): remarkably suppressed; oral absorbability ([8]; Monohydrochloride): excellent oral absorption; also recorded: sufficiently absorbed; also recorded: favorable oral absorbability
COc1ccc(-n2nc(C(=O)N3CCN(C)CC3)cc2-c2ccccn2)nn1 [Compound (1a), [1-(6-methoxypyridazine-3-yl)-5-(pyridine-2-yl)-1H-pyrazole 3-yl](4-methylpiperazine-1-yl)methanone]	No^1)	−0.41	No	0.41	Yes	7.99	97	100	> 50	100	–	remarkable inhibition	strong ex vivo inhibition	IC50 [2]: 1.1 to 1.3 µM; IC50 [9]: 0.13 µM; oral absorbability [8]: excellent oral absorption
COc1ccc(-n2nc(C(=O)N3CCN(C)CC3)cc2-c2ccccn2)nn1 [Compound (1c), [1-(6-methoxypyridazine-3-yl)-5-(pyridine-2-yl)-1H-pyrazole-3-yl] (4-methylpiperazine-1-yl)methanone mono-1-tartrate]	No	−0.20	No	0.00	No	0.19	–	–	–	–	highly soluble	remarkable inhibition	–	stability under wet heat, dry heat, and beam irradiation [10]: extremely stable

Reference: US20090137600A1, “Antiplatelet agent and process for producing the same” (priority 2004, published 2009)
